{"source": "ChEMBL document CHEMBL1156187", "about": "“Discovery of a selective small-molecule melanocortin-4 receptor agonist with efficacy in a pilot study of sexual dysfunction in humans” (J Med Chem, 2010)", "key": {"[1]": {"assay": "AUC (0 to infinity) in dog at 0.14 mg/kg, sublingual", "assay_type": "ADME, organism-based, Canis lupus familiaris", "design": "time infinity, route sublingual, dose 0.14 mg/kg", "details": "plasma"}, "[2]": {"assay": "Bioavailability in dog at 0.67 mg/kg, sublingual", "assay_type": "ADME, organism-based, Canis lupus familiaris", "details": "in vivo"}, "Homo sapiens [3]": {"tested_on": "Homo sapiens", "assay": "Reversal of erectile dysfunction in human assessed as visual sexual stimulation at 200 mg, po dosed twice with the interval of 7 days measuerd after 2 hrs post-dose on day 7", "assay_type": "functional, organism-based"}, "[4]": {"assay": "Half life in dog at 0.67 mg/kg, sublingual", "assay_type": "ADME, organism-based, Canis lupus familiaris", "design": "dose 0.67 mg/kg", "details": "in vivo"}, "[5]": {"assay": "Volume of distribution at steady state in rat at 1 mg/kg, iv", "assay_type": "ADME, organism-based", "design": "dose 1 mg/kg, route intravenous", "details": "in vivo, read-out: Vdss"}, "[6]": {"assay": "Peak plasma concentration in rat at 195 mg, po", "assay_type": "ADME, organism-based"}, "[7]": {"assay": "Fraction unbound in dog plasma", "assay_type": "ADME, cell-free, Canis lupus familiaris"}, "[8]": {"assay": "AUC (0 to infinity) in dog at 0.67 mg/kg, sublingual", "assay_type": "ADME, organism-based, Canis lupus familiaris", "design": "route sublingual, dose 0.67 mg/kg, time infinity", "details": "plasma"}, "[9]": {"molecular_target": "Melanocyte-stimulating hormone receptor (Homo sapiens, UniProt Q01726)", "sequence (Q01726 whole entry, the tested form may be a part)": "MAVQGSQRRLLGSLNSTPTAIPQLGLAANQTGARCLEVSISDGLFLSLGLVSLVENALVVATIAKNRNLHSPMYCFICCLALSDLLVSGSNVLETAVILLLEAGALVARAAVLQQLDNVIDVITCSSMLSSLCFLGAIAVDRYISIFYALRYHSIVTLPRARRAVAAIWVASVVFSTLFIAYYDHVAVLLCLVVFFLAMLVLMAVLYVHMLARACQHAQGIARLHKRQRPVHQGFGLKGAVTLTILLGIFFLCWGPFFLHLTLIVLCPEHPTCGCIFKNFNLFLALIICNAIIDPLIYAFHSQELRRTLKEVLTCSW", "assay": "Agonist activity at human recombinant MC1 receptor expressed in HEK293 cells assessed as cAMP accumulation by enzyme fragment complementation assay", "assay_type": "functional, cell-based"}, "[10]": {"assay": "Cmax in dog at 0.67 mg/kg, sublingual", "assay_type": "ADME, organism-based, Canis lupus familiaris", "design": "dose 0.67 mg/kg, route sublingual", "details": "in vivo"}, "Homo sapiens [11]": {"species_on_record": "Homo sapiens", "assay": "Toxicity in human assessed as minimum effective dose", "assay_type": "organism-based", "details": "in vivo"}, "Melanocortin receptor 4 [12]": {"molecular_target": "T1, Melanocortin receptor 4 (Homo sapiens, UniProt P32245)", "T1 sequence (P32245 whole entry)": "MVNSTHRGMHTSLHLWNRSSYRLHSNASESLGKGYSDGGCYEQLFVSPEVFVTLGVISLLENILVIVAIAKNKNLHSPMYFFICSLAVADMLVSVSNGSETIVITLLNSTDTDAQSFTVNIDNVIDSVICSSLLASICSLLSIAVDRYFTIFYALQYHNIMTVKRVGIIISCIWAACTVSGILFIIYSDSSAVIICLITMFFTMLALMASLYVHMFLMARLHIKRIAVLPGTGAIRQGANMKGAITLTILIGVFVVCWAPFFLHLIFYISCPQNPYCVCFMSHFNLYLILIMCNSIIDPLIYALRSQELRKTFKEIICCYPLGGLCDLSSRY", "assay": "Displacement of [125I]-MT-II from human recombinant MC4 receptor expressed in CHO cells by scintillation counting"}, "[13]": {"assay": "Half life in dog at 0.5 mg/kg, iv", "assay_type": "ADME, organism-based, Canis lupus familiaris", "design": "dose 0.5 mg/kg, route intravenous", "details": "in vivo"}, "[14]": {"assay": "Drug excretion in iv dosed rat urine", "assay_type": "ADME, organism-based", "details": "read-out: Drug uptake"}, "[15]": {"assay": "(§1) Oral bioavailability in dog at 0.5 mg/kg", "assay_type": "ADME, organism-based, Canis lupus familiaris", "details": "in vivo"}, "[16]": {"assay": "Drug excretion in iv dosed rat bile", "assay_type": "ADME, organism-based", "details": "read-out: Drug uptake"}, "[17]": {"assay": "Bioavailability in dog at 0.14 mg/kg, intranasal", "assay_type": "ADME, organism-based, Canis lupus familiaris", "details": "in vivo, inhaled or intranasal"}, "[18]": {"assay": "AUC (0 to infinity) in dog at 0.5 mg/kg, po", "assay_type": "ADME, organism-based, Canis lupus familiaris", "design": "time infinity, dose 0.5 mg/kg, route oral", "details": "plasma"}, "[19]": {"assay": "Peak plasma concentration in rat at 195 mg, sublingual", "assay_type": "ADME, organism-based"}, "Melanocortin receptor 3 [20]": {"molecular_target": "T2, Melanocortin receptor 3 (Homo sapiens, UniProt P41968)", "T2 sequence (P41968 whole entry, the tested form may be a part)": "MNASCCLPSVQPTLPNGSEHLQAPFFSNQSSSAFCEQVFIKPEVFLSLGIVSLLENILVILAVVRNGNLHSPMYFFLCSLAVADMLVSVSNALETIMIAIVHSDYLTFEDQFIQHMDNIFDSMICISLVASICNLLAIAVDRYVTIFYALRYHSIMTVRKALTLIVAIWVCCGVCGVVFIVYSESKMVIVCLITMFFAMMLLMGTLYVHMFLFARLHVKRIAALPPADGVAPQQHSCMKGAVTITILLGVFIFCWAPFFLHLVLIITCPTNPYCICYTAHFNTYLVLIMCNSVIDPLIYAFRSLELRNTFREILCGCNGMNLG", "assay": "Agonist activity at human recombinant MC3 receptor expressed in CHO cells assessed as cAMP accumulation by enzyme fragment complementation assay relative to […]", "assay_type": "functional, cell-based"}, "[21]": {"assay": "as §1", "assay_type": "ADME, organism-based, Canis lupus familiaris", "details": "in vivo", "remark": "listed apart in the source"}, "[22]": {"assay": "AUC (0 to infinity) in dog at 0.14 mg/kg, intranasal", "assay_type": "ADME, organism-based, Canis lupus familiaris", "design": "route nasal, time infinity, dose 0.14 mg/kg", "details": "plasma, inhaled or intranasal"}, "[23]": {"assay": "Half life in dog at 0.14 mg/kg, intranasal", "assay_type": "ADME, organism-based, Canis lupus familiaris", "design": "dose 0.14 mg/kg", "details": "in vivo, inhaled or intranasal"}, "Melanocortin receptor 5": {"molecular_target": "Melanocortin receptor 5 (Homo sapiens, UniProt P33032)", "sequence (P33032 whole entry)": "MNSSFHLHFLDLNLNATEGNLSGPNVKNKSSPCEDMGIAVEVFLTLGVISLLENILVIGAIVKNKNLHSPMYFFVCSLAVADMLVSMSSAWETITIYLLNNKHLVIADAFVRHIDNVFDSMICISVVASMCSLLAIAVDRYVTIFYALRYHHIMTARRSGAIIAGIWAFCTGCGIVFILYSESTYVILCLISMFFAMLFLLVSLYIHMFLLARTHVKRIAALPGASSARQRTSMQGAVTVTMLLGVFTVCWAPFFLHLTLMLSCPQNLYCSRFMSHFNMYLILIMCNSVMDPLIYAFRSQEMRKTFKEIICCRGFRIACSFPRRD", "assay": "Agonist activity at human recombinant MC5 receptor expressed in HEK293 cells assessed as cAMP accumulation by beta lactamase reporter gene assay relative to alpha melanocyte-stimulating hormone", "assay_type": "functional, cell-based"}, "[24]": {"assay": "Binding affinity to sodium channel"}, "Melanocortin receptor 4 [25]": {"molecular_target": "T1, Melanocortin receptor 4", "assay": "Agonist activity at human recombinant MC4 receptor expressed in CHO cells by cAMP responsive beta lactamase reporter gene assay", "assay_type": "functional, cell-based"}, "[26]": {"assay": "Fraction unbound in rat plasma", "assay_type": "ADME, cell-free"}, "[27]": {"assay": "Tmax in dog at 0.14 mg/kg, sublingual", "assay_type": "ADME, organism-based, Canis lupus familiaris", "design": "dose 0.14 mg/kg", "details": "in vivo"}, "Melanocortin receptor 3 [28]": {"molecular_target": "T2, Melanocortin receptor 3", "assay": "Agonist activity at human recombinant MC3 receptor expressed in CHO cells assessed as cAMP accumulation by enzyme fragment complementation assay", "assay_type": "functional, cell-based"}, "[29]": {"assay": "Clearance in dog plasma at 0.5 mg/kg, iv", "assay_type": "ADME, organism-based, Canis lupus familiaris", "design": "dose 0.5 mg/kg, route intravenous"}, "[30]": {"assay": "Oral bioavailability in rat at 1 mg/kg", "assay_type": "ADME, organism-based", "details": "in vivo"}, "[31]": {"assay": "Lipophilicity, log D at pH 7.4", "assay_type": "physicochemical", "details": "buffer"}}, "note": "pEC50, pKi: −log10 of the molar value. Activity calls are given as the source filed them. The rule behind the calls is not given here."}
{"smiles": "C[C@@H]1CN(C(=O)[C@@H]2CN(C(C)(C)C)C[C@H]2c2ccc(F)cc2F)C[C@H](C)[C@@]1(O)c1ccccc1.Cl", "values": [{"measurement": "AUC(0-inf)", "setting": "[1]", "value": 17, "unit": "ng·h/mL"}, {"measurement": "bioavailability", "setting": "[2]", "value": 26, "unit": "%"}, {"measurement": "Activity", "setting": "Homo sapiens [3]", "value": "Active"}, {"measurement": "half-life", "setting": "[4]", "value": 3.6, "unit": "h"}, {"measurement": "Vd", "setting": "[5]", "value": 19, "unit": "L/kg"}, {"measurement": "Cmax", "setting": "[6]", "value": 30, "unit": "ng/mL"}, {"measurement": "fraction unbound", "setting": "[7]", "value": 0.15}, {"measurement": "AUC(0-inf)", "setting": "[8]", "value": 64, "unit": "ng·h/mL"}, {"measurement": "pEC50", "setting": "[9]", "value": 5.99}, {"measurement": "Cmax", "setting": "[10]", "value": 15, "unit": "ng/mL"}, {"measurement": "Activity", "setting": "Homo sapiens [11]", "value": "Toxic"}, {"measurement": "pKi", "setting": "Melanocortin receptor 4 [12]", "value": 7.57}, {"measurement": "half-life", "setting": "[13]", "value": 4.2, "unit": "h"}, {"measurement": "dose excreted", "setting": "[14]", "value": "< 3", "unit": "%"}, {"measurement": "bioavailability", "setting": "[15]", "value": 1, "unit": "%"}, {"measurement": "dose excreted", "setting": "[16]", "value": "< 1", "unit": "%"}, {"measurement": "bioavailability", "setting": "[17]", "value": 24, "unit": "%"}, {"measurement": "AUC(0-inf)", "setting": "[18]", "value": 1.8, "unit": "ng·h/mL"}, {"measurement": "Cmax", "setting": "[19]", "value": 31, "unit": "ng/mL"}, {"measurement": "Emax", "setting": "Melanocortin receptor 3 [20]", "value": 99, "unit": "%"}, {"measurement": "bioavailability", "setting": "[21]", "value": 1, "unit": "%"}, {"measurement": "AUC(0-inf)", "setting": "[22]", "value": 12, "unit": "ng·h/mL"}, {"measurement": "half-life", "setting": "[23]", "value": 3.3, "unit": "h"}, {"measurement": "Emax", "setting": "Melanocortin receptor 5", "value": 100, "unit": "%"}, {"measurement": "pKi", "setting": "[24]", "value": 6.16}, {"measurement": "pEC50", "setting": "Melanocortin receptor 4 [25]", "value": 7.92}, {"measurement": "fraction unbound", "setting": "[26]", "value": 0.07}, {"measurement": "Tmax", "setting": "[27]", "value": 0.7, "unit": "h"}, {"measurement": "pEC50", "setting": "Melanocortin receptor 3 [28]", "value": 5.94}, {"measurement": "clearance", "setting": "[29]", "value": 46, "unit": "mL/min/kg"}, {"measurement": "bioavailability", "setting": "[30]", "value": 20, "unit": "%"}, {"measurement": "logD", "setting": "[31]", "value": 2.8}]}
